{"source": "patent US10646464B2", "about": "“Methods for treating cancer” (Boston Biomedical, Inc., priority 2017, dated 2020)", "origin": "cited, not measured here", "key": {"Stat3 pathway": {"system": "Stat3 pathway", "details": "read-out: inhibits Stat3 pathway activity, cellular IC50"}, "[1]": {"system": "patients with advanced, previously treated pancreatic adenocarcinoma", "details": "weekly paclitaxel alone, previously reported"}}, "data": [{"smiles": "CC(=O)c1cc2c(o1)C(=O)c1ccccc1C2=O", "note": "[2-acetylnaphtho[2,3-b]furan-4,9-dione]", "values": [{"measurement": "IC50", "setting": "Stat3 pathway", "value": "~250", "unit": "nM"}]}, {"smiles": "CC(=O)O[C@H]1C(=O)[C@@]2(C)[C@H]([C@H](OC(=O)c3ccccc3)[C@]3(O)C[C@H](OC(=O)[C@H](O)[C@@H](NC(=O)c4ccccc4)c4ccccc4)C(C)=C1C3(C)C)[C@]1(OC(C)=O)CO[C@@H]1C[C@@H]2O", "note": "[paclitaxel]", "values": [{"measurement": "median overall survival (mOS)", "setting": "[1]", "value": "about 17.5 weeks"}]}]}
